Data reported in patent EP0114002B1, “Benzothiopyrano(4,3,2,-cd)indazoles, their pharmaceutical compositions and methods for their production” (WARNER-LAMBERT COMPANY, priority 1983, dated 1984).

Columns and labels:
L1210 cells = experiment: L1210 murine leukemia cell growth inhibition in vitro; assay type: cell-based; conditions: Mus musculus, 72 h, Table 1, three days incubation, 50% inhibition of growth, read-out: L1210 in vitro ID50
Method: Another test protocol uses L1210 cells, a murine leukemia cell line, grown in RPMI 1640 supplemented with 5% fetal bovine serum and gentamicin ([…]). Drug dilutions are prepared in the appropriate solvent and 20 µl of each dilution are added to 24-well Linbro tissue culture plates, followed by the addition of 2.0 ml of cell suspension containing 3 x 10^4 cells per ml. Solvent and medium controls are included in each test. After incubation at 37°C forthree days in 5% C02, the contents of each well are removed and the cells counted in a ZBI Coulter counter. Percent growth are calculated relative to the controls and the levels of drug activity are expressed as ID50 in moles per liter.

HCT-8 cells = experiment: in vitro proliferating human colon adenocarcinoma (HCA) cell screen; assay type: cell-based; conditions: Table 1, 60 to 65 hours with compound, 50% inhibition of growth, read-out: HCA—3 in vitro ID50
Method: One test protocol is the in vitro proliferating human colon adenocarcinoma (HCA) cell screen. In this test, HCT-8 cells (HCA cell line received from Yale University) are trypsinized using trypsin-EDTA. A single cell suspension is achieved by passing the cells through a 26 gauge needle with a 20 cc syringe. A cell suspension is prepared using RPMI 1640 + 10% FCS + 50) g/ml gentamicin sulfate with a cell concentration of approximately 30,000 cells/ml. The cell suspension is dispensed in Linbro 24-well plates; 1 ml/well. The plates are incubated for approximately 48 hours at 37°C in a 5% C02 atmosphere. At this time test compounds are added in the appropriate concentration. Five µl of the 200 µg/ml stock solution is added to each well in primary test. Ten µl of the appropirate dilution is added to each well for a titration test. The plates are re-incubated an additional 60 to 65 hours at 37°C in a 5% C02 atmosphere. The cells are lysed using a mix of cationic surfactant, glacial acetic acid, and sodium chloride. Two ml of the lysed cell suspension from each well is added to 8 ml of diluent. The number of nuclei is determined using a Coulter counter (ZBI model), and a percent growth for each drug concentration is calculated. From this, an ID50 molar concentration of a compound (that results in 50% inhibition of growth) is determined.

[1] = test system: lymphocytic leukemia P388; experiment: in vivo lymphocytic leukemia P388 test; set-up: species or system mice; conditions: Mus musculus, P388, ip, 120 h, read-out: P388 in vivo T/C × 100; for response vs control in vivo at 3.12 mg/kg: Dose 3.12 mg/kg intraperitoneally once daily for five days; for response vs control in vivo at 6.25 mg/kg: Dose 6.25 mg/kg intraperitoneally once daily for five days; for response vs control in vivo at 12.5 mg/kg: Dose 12.50 mg/kg intraperitoneally once daily for five days; for response vs control in vivo at 50 mg/kg: Dose 50.00 mg/kg intraperitoneally once daily for five days; for response vs control in vivo at 25 mg/kg: Dose 25.00 mg/kg intraperitoneally once daily for five days
Method: Another test protocol is the in vivo lymphocytic leukemia P388 test. The animals used are either male or female CD2F, mice. There are six or seven animals per test group. The tumor transplant is by intraperitoneal injection of dilute ascitic fluid containing cells of lymphocytic leukemia P388. The test compounds are administered intraperitoneally once daily for five consecutive days at various doses following tumor inoculation. The animals are weighed and survivors are recorded on a regular basis for 30 days. A compound is designated "toxic" if, at a given dose, all animals died prior to four days after the first injection of drug. A ratio of survival time for treated (T)/control (C) animals is calculated. A criterion for efficacy is a ratio T/C times 100 greater than or equal to 125. See Cancer Chemotherapy Reports, Part 3, 3; 1 (1972) for a comprehensive discussion of the protocol.

[2] = test system: Aerobacter aerogenes 0126; experiment: in vitro antibacterial/antifungal (ABF) agar-disk diffusion test; assay type: cell-based; conditions: Klebsiella aerogenes, read-out: ABF Zone Diameter (cont. in mg/ml) A. Aero-genes; for zone of inhibition at 100 µg/mL: 0.1 mg/ml; for zone of inhibition at 3000 µg/mL: 3 mg/ml
Method: (§1) Still another test protocol is the in vitro antibacterial/antifungal (ABF) test. Compounds are tested for antimicrobial activity in an agar-disk diffusion assay, a standard microbiological technique for testing antibiotics'. After incubation of each culture with a test compound, a zone of inhibition is determined. The zone diameter (mm) of active compounds ranges from a minimum of 13.5 mm to as high as 60 mm, with a greater diameter reflecting higher activity. For convenience, values are reported for two gram-negative bacteria (Aerobacter aerogenes 0126 and Escherichia coli 04863), two gram-positive bacteria (Bacillus subtilis 04555 and Streptococcus faecalis 05045 utilizing AM-09 medium), and one mycelial fungus (Penicillium avellaneum M2988).

Bacillus subtilis 04555 = experiment: as above; assay type: cell-based; conditions: read-out: ABF Zone Diameter (cont. in mg/ml) B. Sub-tilis; for zone of inhibition at 500 µg/mL: 0.5 mg/ml; for zone of inhibition at 3000 µg/mL: 3 mg/ml
Method: as §1

Escherichia coli 04863 = experiment: as above; assay type: cell-based; conditions: read-out: ABF Zone Diameter (cont. in mg/ml) E. Coli; for zone of inhibition at 500 µg/mL: 0.5 mg/ml; for zone of inhibition at 3000 µg/mL: 3 mg/ml
Method: as §1

[3] = test system: Penicillium avellaneum M2988; experiment: as above; assay type: cell-based; conditions: Hamigera avellanea, read-out: ABF Zone Diameter (cont. in mg/ml) P. Avell-aneum; for zone of inhibition at 3000 µg/mL: 3 mg/ml
Method: as §1

[4] = test system: Streptococcus faecalis 05045; experiment: as above; assay type: cell-based; conditions: Enterococcus faecalis, AM-09 medium, read-out: ABF Zone Diameter (cont. in mg/ml) S. Fae-calis; for zone of inhibition at 500 µg/mL: 0.5 mg/ml; for zone of inhibition at 3000 µg/mL: 3 mg/ml; for zone of inhibition at 1000 µg/mL: 1 mg/ml
Method: as §1

| IC50 (L1210 cells) [nM] | IC50 (HCT-8 cells) [nM] | SMILES | response vs control in vivo at 3.12 mg/kg [1] [%] | response vs control in vivo at 6.25 mg/kg [1] [%] | response vs control in vivo at 12.5 mg/kg [1] [%] | zone of inhibition at 100 µg/mL [2] [mm] | zone of inhibition at 500 µg/mL (Bacillus subtilis 04555) [mm] | zone of inhibition at 500 µg/mL (Escherichia coli 04863) [mm] | zone of inhibition at 3000 µg/mL [3] [mm] | zone of inhibition at 3000 µg/mL [2] [mm] | zone of inhibition at 3000 µg/mL [4] [mm] | zone of inhibition at 3000 µg/mL (Bacillus subtilis 04555) [mm] | zone of inhibition at 1000 µg/mL [4] [mm] | also measured |
| --- | --- | --- | --- | --- | --- | --- | --- | --- | --- | --- | --- | --- | --- | --- |
| 80 | 280 | CN(C)CCn1nc2c3c(c(N)ccc31)Sc1ccccc1-2 [CH2CH2N(CH2)2 / NH2] |  | 126 | 160 | 14 | 15 | 16 |  |  |  |  | 20 | zone of inhibition at 500 µg/mL ([3]; 0.5 mg/ml): 17 mm |
| 56 | 200 | CCN(CC)CCn1nc2c3c(c([N+](=O)[O-])ccc31)Sc1ccccc1-2 [CH2CH2N(CH2H5)2 / HO2, N,N-Diethyl-5-nitro-2H[1]benzothiopyrano[4,3,2-cd]-indazole-2-ethanamine] |  |  |  |  |  |  | 15 | 0 | 14 | 14 |  | response vs control in vivo at 25 mg/kg [1]: 138%; response vs control in vivo at 50 mg/kg [1]: 170%; zone of inhibition at 1000 µg/mL (Escherichia coli 04863; 1 mg/ml): 14 mm |
| 79 | 97 | CN(C)CCn1nc2c3c(c([N+](=O)[O-])ccc31)Sc1ccccc1-2 [CH2CH2N(CH3)2 / NO2, N,N dimethyl-5-nitro-2H[1]benzothiopyrano[4,3,2-cd]indazole-2-ethanamine] |  |  | 158 |  |  |  |  |  | 15 | 15 |  | zone of inhibition at 1000 µg/mL ([2]; 1 mg/ml): 15 mm; zone of inhibition at 100 µg/mL (Escherichia coli 04863; 0.1 mg/ml): 14 mm; zone of inhibition at 100 µg/mL ([3]; 0.1 mg/ml): 15 mm |
| 110 | 320 | NCCn1nc2c3c(c(N)ccc31)Sc1ccccc1-2 [CH2CH2NH2 / NH2, 5-amino-2H[1]benzothiopyrano[4,3,2]-cd]indazole-2-ethanamine] | 125 | 131 | 160 | 17 |  | 19 | 0 |  |  |  | 15 | zone of inhibition at 1000 µg/mL (Bacillus subtilis 04555; 1 mg/ml): 18 mm |
| 170 | 580 | Nc1ccc2c3c(nn2CCNCCO)-c2ccccc2Sc13 [CH2CH2NHCH2CH2OH / NH2] | 135 | 143 | 159 |  | 18 | 17 | 15 |  |  |  | 20 | response vs control in vivo at 25 mg/kg [1]: 194%; zone of inhibition at 500 µg/mL ([2]; 0.5 mg/ml): 16 mm |

Further lines, the molecule ahead of its results:

| SMILES | IC50 (L1210 cells) [nM] | IC50 (HCT-8 cells) [nM] | response vs control in vivo at 3.12 mg/kg [1] [%] | response vs control in vivo at 6.25 mg/kg [1] [%] | response vs control in vivo at 12.5 mg/kg [1] [%] | zone of inhibition at 100 µg/mL [2] [mm] | zone of inhibition at 500 µg/mL (Bacillus subtilis 04555) [mm] | zone of inhibition at 500 µg/mL (Escherichia coli 04863) [mm] | zone of inhibition at 3000 µg/mL [3] [mm] | zone of inhibition at 3000 µg/mL [2] [mm] | zone of inhibition at 3000 µg/mL [4] [mm] | zone of inhibition at 3000 µg/mL (Bacillus subtilis 04555) [mm] | zone of inhibition at 1000 µg/mL [4] [mm] | also measured |
| --- | --- | --- | --- | --- | --- | --- | --- | --- | --- | --- | --- | --- | --- | --- |
| CCN(CC)CCn1nc2c3c(c(NCCNCCO)ccc31)Sc1ccccc1-2 [CH2CH2N(C2H5)2 / NHCH2CH2NHCH2CH2OH, 2-[[2-[[2-[2-(Diethylamino)ethyl]-2H[1]benzothiopyrano[4,3,2-cd]indazol-5-yl]amino]ethyl]amino]ethanol] | 82 | 200 | 209 | 219 | 280 | 15 | 18 | 26 | 0 |  |  |  |  | zone of inhibition at 500 µg/mL [4]: 16 mm |
| CCN(CC)CCn1nc2c3c(c(NC(C)=O)ccc31)Sc1ccccc1-2 [CH2CH2N(C2H5)2 / NHCOCH3, N-[2-[2-(Diethylamino)ethyl]-2H-[1]benzothiopyrano[4,3,2-cd]indazol-5-yl]acetamide] | 240 | 600 |  |  | 170 |  | 16 |  | 0 | 16 | 15 |  |  | zone of inhibition at 3000 µg/mL (Escherichia coli 04863): 16 mm |
| CCN(CC)CCn1nc2c3c(c(NCCN4CCOC4=O)ccc31)Sc1ccccc1-2 [CH2CH2N(C2H5)2 /] | 950 | 1800 |  |  |  |  |  |  | 0 | 0 |  | 13 |  | response vs control in vivo at 47.45 mg/kg ([1]; Dose 47.45 mg/kg intraperitoneally once daily for five days): 141%; response vs control in vivo at 50 mg/kg [1]: 140%; response vs control in vivo at 63.28 mg/kg ([1]; Dose 63.28 mg/kg intraperitoneally once daily for five days): 165%; response vs control in vivo at 84.38 mg/kg ([1]; Dose 84.38 mg/kg intraperitoneally once daily for five days): 193%; response vs control in vivo at 100 mg/kg ([1]; Dose 100.00 mg/kg intraperitoneally once daily for five days): 218%; zone of inhibition at 3000 µg/mL (Escherichia coli 04863): 0 mm; zone of inhibition at 500 µg/mL [4]: 14 mm |
